From patent US20230131899A1, “INHIBITORS OF MICROBIALLY INDUCED AMYLOID” (Axial Therapeutics, Inc., priority 2020, published 2023)
Like-named read-outs stand apart in the source and are kept apart here.

Molecular target: T1, human α-synuclein (Homo sapiens, UniProt P37840)
T1 construct: the full-length gene for untagged human α-synuclein was inserted; made in house; host or cells: E. coli BL21(DE3), plasmid derived from pT7 or pET11a
Test: Cell-free Thioflavin T assay of α-synuclein aggregation (αSyn ThT Assay)
Assay type: biochemical
Settings: αSyn 50 μM, compounds 100 μM
Summary of the method: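 Inhibition is reported as 100% minus background-corrected ThT signal relative to vehicle wells, taken at 36, 47, 48 or 72 h or the last read. Reactions held 50 μM recombinant α-synuclein, 20-100 μM compound, 20-40 μM ThT and 1% DMSO. Incubation was at 37° C., shaken, with a glass bead.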

[1] = class symbol, read-out: αSyn ThT Assay % inhibition, activity range
[2] = mean percent inhibition relative to DMSO control, read-out: αSyn ThT Assay % inhibition

| SMILES | inhibition at 100 µM [1] [%] | inhibition at 100 µM [2] [%] |
| --- | --- | --- |
| CN1CC(C(=O)O)n2c(c(-c3cccc(C(F)(F)F)c3)c(Cc3cccc4ccccc34)c(C(=O)N3CCOCC3)c2=O)S1(=O)=O (centres unmarked) [Compound 160, 2-methyl-7-(morpholine-4-carbonyl)-8-(naphthalen-1-ylmethyl)-6-oxo-9-(3-(trifluoromethyl)phenyl)-3,4-dihydro-2H,6H-pyrido[1,2-e][1,2,5] thiadiazine-4-carboxylic acid 1,1-dioxide] | 11 to 30 | 17 |
| CCc1c(Cc2cccc3ccccc23)c(-c2cccc(C(F)(F)F)c2)c2n(c1=O)C(C(=O)O)CN2Cc1ccc(OC)cc1 (centres unmarked) [Compound 161, 6-ethyl-1-(4-methoxybenzyl)-7-(naphthalen-1-ylmethyl)-5-oxo-8-(3-(trifluoromethyl)phenyl)-1,2,3,5-tetrahydroimidazo[1,2-a]pyridine-3-carboxylic acid] | 31 to 60 | 44 |
| CCCN1CC(C(=O)O)n2c1c(-c1cccc(C(F)(F)F)c1)c(Cc1cccc3ccccc13)c(Cl)c2=O (centres unmarked) [Compound 162, 6-chloro-7-(naphthalen-1-ylmethyl)-5-oxo-1-propyl-8-(3-(trifluoromethyl)phenyl)-1,2,3,5-tetrahydroimidazo[1,2-a]pyridine-3-carboxylic acid] | > 60 | 67 |
| CCCCN1CC(C(=O)O)n2c1c(-c1cccc(C(F)(F)F)c1)c(Cc1cccc3ccccc13)c(Cl)c2=O (centres unmarked) [Compound 163, 1-butyl-6-chloro-7-(naphthalen-1-ylmethyl)-5-oxo-8-(3-(trifluoromethyl)phenyl)-1,2,3,5-tetrahydroimidazo[1,2-a]pyridine-3-carboxylic acid] | 31 to 60 | 47 |
| CC(C)CN1CC(C(=O)O)n2c1c(-c1cccc(C(F)(F)F)c1)c(Cc1cccc3ccccc13)c(Cl)c2=O (centres unmarked) [Compound 164, 6-chloro-1-isobutyl-7-(naphthalen-1-ylmethyl)-5-oxo-8-(3-(trifluoromethyl)phenyl)-1,2,3,5-tetrahydroimidazo[1,2-a]pyridine-3-carboxylic acid] | 31 to 60 | 43 |
| O=C(O)C1CN(CC2CCCC2)c2c(-c3cccc(C(F)(F)F)c3)c(Cc3cccc4ccccc34)c(Cl)c(=O)n21 (centres unmarked) [Compound 167, 6-chloro-1-(cyclopentylmethyl)-7-(naphthalen-1-ylmethyl)-5-oxo-8-(3-(trifluoromethyl)phenyl)-1,2,3,5-tetrahydroimidazo[1,2-a]pyridine-3-carboxylic acid] | 31 to 60 | 45 |
| N#Cc1cccc(CN2CC(C(=O)O)n3c2c(-c2cccc(C(F)(F)F)c2)c(Cc2cccc4ccccc24)c(Cl)c3=O)c1 (centres unmarked) [Compound 168, 6-chloro-1-(3-cyanobenzyl)-7-(naphthalen-1-ylmethyl)-5-oxo-8-(3-(trifluoromethyl)phenyl)-1,2,3,5-tetrahydroimidazo[1,2-a]pyridine-3-carboxylic acid] | 31 to 60 | 43 |
| O=C(O)C1CN(Cc2cccnc2)c2c(-c3cccc(C(F)(F)F)c3)c(Cc3cccc4ccccc34)c(Cl)c(=O)n21 (centres unmarked) [Compound 169, 6-chloro-7-(naphthalen-1-ylmethyl)-5-oxo-1-(pyridin-3-ylmethyl)-8-(3-(trifluoromethyl)phenyl)-1,2,3,5-tetrahydroimidazo[1,2-a]pyridine-3-carboxylic acid] | 31 to 60 | 33 |
| O=C(O)C1CN(Cc2ccc(CO)cc2)c2c(-c3cccc(C(F)(F)F)c3)c(Cc3cccc4ccccc34)c(Cl)c(=O)n21 (centres unmarked) [Compound 170, 6-chloro-1-(4-(hydroxymethyl)benzyl)-7-(naphthalen-1-ylmethyl)-5-oxo-8-(3-(trifluoromethyl)phenyl)-1,2,3,5-tetrahydroimidazo[1,2-a]pyridine-3-carboxylic acid] | 11 to 30 | 30 |
| CCCN1CC(C(=O)O)n2c(c(-c3cccc(C(F)(F)F)c3)c(Cc3cccc4ccccc34)c(C(N)=O)c2=O)S1(=O)=O (centres unmarked) [Compound 172, 7-carbamoyl-8-(naphthalen-1-ylmethyl)-6-oxo-2-propyl-9-(3-(trifluoromethyl)phenyl)-3,4-dihydro-2H,6H-pyrido[1,2-e][1,2,5]thiadiazine-4-carboxylic acid 1,1-dioxide] | > 60 | 98 |
| CN(C)C(=O)c1c(Cc2cccc3ccccc23)c(-c2cccc(C(F)(F)F)c2)c2n(c1=O)C(C(=O)O)CN(C)S2(=O)=O (centres unmarked) [Compound 173, 7-(dimethylcarbamoyl)-2-methyl-8-(naphthalen-1-ylmethyl)-6-oxo-9-(3-(trifluoromethyl)phenyl)-3,4-dihydro-2H,6H-pyrido[1,2-e] [1,2,5] thiadiazine-4-carboxylic acid 1,1-dioxide] | > 60 | 86 |
| O=C(O)C1CN(Cc2ccncc2)c2c(-c3cccc(C(F)(F)F)c3)c(Cc3cccc4ccccc34)c(Cl)c(=O)n21 (centres unmarked) [Compound 174, 6-chloro-7-(naphthalen-1-ylmethyl)-5-oxo-1-(pyridin-4-ylmethyl)-8-(3-(trifluoromethyl)phenyl)-1,2,3,5-tetrahydroimidazo[1,2-a]pyridine-3-carboxylic acid] | 11 to 30 | 23 |
| CC(C)N1CC(C(=O)O)n2c(c(-c3cccc(C(F)(F)F)c3)c(Cc3cccc4ccccc34)c(C(N)=O)c2=O)S1(=O)=O (centres unmarked) [Compound 175, 7-carbamoyl-2-isopropyl-8-(naphthalen-1-ylmethyl)-6-oxo-9-(3-(trifluoromethyl)phenyl)-3,4-dihydro-2H,6H-pyrido[1,2-e][1,2,5]thiadiazine-4-carboxylic acid 1,1-dioxide] | > 60 | 98 |
| NC(=O)c1c(Cc2cccc3ccccc23)c(-c2cccc(C(F)(F)F)c2)c2n(c1=O)C(C(=O)O)CN(C1CCCC1)S2(=O)=O (centres unmarked) [Compound 176, 7-carbamoyl-2-cyclopentyl-8-(naphthalen-1-ylmethyl)-6-oxo-9-(3-(trifluoromethyl)phenyl)-3,4-dihydro-2H,6H-pyrido[1,2-e][1,2,5]thiadiazine-4-carboxylic acid 1,1-dioxide] | > 60 | 98 |
| CCCCN1CC(C(=O)O)n2c(c(-c3cccc(C(F)(F)F)c3)c(Cc3cccc4ccccc34)c(C(N)=O)c2=O)S1(=O)=O (centres unmarked) [Compound 177, 2-butyl-7-carbamoyl-8-(naphthalen-1-ylmethyl)-6-oxo-9-(3-(trifluoromethyl)phenyl)-3,4-dihydro-2H,6H-pyrido[1,2-e][1,2,5]thiadiazine-4-carboxylic acid 1,1-dioxide] | > 60 | 97 |
| O=C(O)C1CN(CCc2ccccc2)c2c(-c3cccc(C(F)(F)F)c3)c(Cc3cccc4ccccc34)c(Cl)c(=O)n21 (centres unmarked) [Compound 178, 6-chloro-7-(naphthalen-1-ylmethyl)-5-oxo-1-phenethyl-8-(3-(trifluoromethyl)phenyl)-1,2,3,5-tetrahydroimidazo[1,2-a]pyridine-3-carboxylic acid] | 31 to 60 | 43 |
| CC(C)N1CC(C(=O)O)n2c1c(-c1cccc(C(F)(F)F)c1)c(Cc1cccc3ccccc13)c(Cl)c2=O (centres unmarked) [Compound 179, 6-chloro-1-isopropyl-7-(naphthalen-1-ylmethyl)-5-oxo-8-(3-(trifluoromethyl)phenyl)-1,2,3,5-tetrahydroimidazo[1,2-a]pyridine-3-carboxylic acid] | > 60 | 72 |
| O=C(O)C1CN(CC2CCCCC2)c2c(-c3cccc(C(F)(F)F)c3)c(Cc3cccc4ccccc34)c(Cl)c(=O)n21 (centres unmarked) [Compound 180, 6-chloro-1-(cyclohexylmethyl)-7-(naphthalen-1-ylmethyl)-5-oxo-8-(3-(trifluoromethyl)phenyl)-1,2,3,5-tetrahydroimidazo[1,2-a]pyridine-3-carboxylic acid] | > 60 | 63 |
| O=C(O)C1CN(Cc2ccccc2CO)c2c(-c3cccc(C(F)(F)F)c3)c(Cc3cccc4ccccc34)c(Cl)c(=O)n21 (centres unmarked) [Compound 181, 6-chloro-1-(2-(hydroxymethyl)benzyl)-7-(naphthalen-1-ylmethyl)-5-oxo-8-(3-(trifluoromethyl)phenyl)-1,2,3,5-tetrahydroimidazo[1,2-a]pyridine-3-carboxylic acid] | 31 to 60 | 31 |
| O=C(O)C1CN(CC2CCOCC2)c2c(-c3cccc(C(F)(F)F)c3)c(Cc3cccc4ccccc34)c(Cl)c(=O)n21 (centres unmarked) [Compound 182, 6-chloro-7-(naphthalen-1-ylmethyl)-5-oxo-1-((tetrahydro-2H-pyran-4-yl)methyl)-8-(3-(trifluoromethyl)phenyl)-1,2,3,5-tetrahydroimidazo[1,2-a]pyridine-3-carboxylic acid] | 31 to 60 | 33 |
| NC(=O)c1c(Cc2cccc3ccccc23)c(-c2cccc(C(F)(F)F)c2)c2n(c1=O)C(C(=O)O)CN(CCCO)S2(=O)=O (centres unmarked) [Compound 184, 7-carbamoyl-2-(3-hydroxypropyl)-8-(naphthalen-1-ylmethyl)-6-oxo-9-(3-(trifluoromethyl)phenyl)-3,4-dihydro-2H,6H-pyrido[1,2-e][1,2,5]thiadiazine-4-carboxylic acid 1,1-dioxide] | > 60 | 75 |
| O=C(O)C1CN(Cc2ccccc2)c2c(-c3cccc(C(F)(F)F)c3)c(Cc3cccc4ccccc34)cc(=O)n21 (centres unmarked) [Compound 187, 1-benzyl-7-(naphthalen-1-ylmethyl)-5-oxo-8-(3-(trifluoromethyl)phenyl)-1,2,3,5-tetrahydroimidazo[1,2-a]pyridine-3-carboxylic acid] | 31 to 60 | 45 |
